Experimental data reported in US20230293530A1, “AGENTS FOR SENSITIZING SOLID TUMORS TO TREATMENT” (Yeda Research and Development Co. Ltd., priority 2020, published 2023).

System: LMP-7 immunoproteasome
Test: Western blot for LMP-7 immunoproteasome in 4T1 cells
Format: cell-based, murine
Conditions: 300 µM mizoribine, 24 hours
Excerpt: C) ASS1 mRNA expression levels and NDNO scores are associated with non-response to anti-PD1 therapy in non-small cell lung cancer (NSCLC) (7 responders and 14 nonresponders). D) Proteomic-based NDNO scores associate with lower hydrophobicity of peptide repertoire (Wilcoxon ranksum P<0.05) in a (CPTAC3) lung adenocarcinoma cohort. NDNO scores were used to determine the top tertile (red; n=36) and bottom tertile (blue; n=36); Proteomic NDNO scores denote the ratio of NNDO scores of the tumor vs the matched normal sample (Methods). Hydrophobicity scores were determined by R library Peptides using the metric from Janin et al^2, where the hydrophobicity of each sample’s peptide repertoire denotes the mean hydrophobicity of all its peptides (Methods). E) 4T1 breast cancer cells were treated with 300 µM mizoribine for 24 hours and analysed by western for LMP-7 immunoproteasome (Left panel). Quantification of the western is shown on the right panel. […] Tumor size was calliper-measured on the designated days (upper panel) and at sacrifice on day 14 (lower panel, p = 0.0476 using student’s t-test). […] Human IFNγ was measured using ELISA in wells containing cultured CD8+T-cells and PDX explants from two patients (Pat#1, LEP 19 and Pat#2, LEP 20) with metastatic NSCLC on responsive to anti-PD1. […]

## NC(=O)c1ncn([C@@H]2O[C@H](CO)[C@@H](O)[C@H]2O)c1O [Mizoribine, mizoribine]
  immunoproteasome LMP-7 expression: higher immunoproteasome LMP-7 expression
